Results published in US7572816B2, “Therapeutic agents for the treatment of cancer, metabolic diseases and skin disorders” (Auspex Pharmaceuticals, Inc., priority 2004, dated 2009).

Key:
Type in all cases: cell-based
[1] = test system: human head and neck squamous cell carcinoma cells (SCC 103); experiment: SCC103 Tumor Cell Proliferation Assay; conditions: SCC 103 cells; FIG. 7 and FIG. 8
Description: (§1) SCC 103 cells (15,000 per well in 90% EMEM medium plus 10% Fetal Bovine Serum [FBS]) were pre-incubated in a black clear bottom 96-well plate in an atmosphere of 5% CO2 at 37° C. for 24 hours. Stock solutions of compounds in DMSO were diluted using a buffer and dilutions were added to each well. […] The final assay pH was 7.4. The cells were incubated in EMEM medium for an additional 72 hours. Alamar Blue (10% of culture volume) was added and the plate was incubated for an additional 12 hours. Fluorescence intensity was measured using a Gemini plate reader with excitation at 530 nm and emission at 590 nm. A decrease of 50 percent or more (≧50%) in fluorescence intensity relative to vehicle treated controls is an indication of significant anti-cancer activity.

[2] = test system: human hepatic carcinoma cells (HepG2); experiment: HepG2 Tumor Cell Proliferation Assay; conditions: FIG. 3 and FIG. 4
Description: as §1, with “HepG2” for “SCC 103”, “(5,000” for “(15,000”, “[…]” for “96-well”

[3] = test system: human colon cancer cells (LS174T); experiment: LS174T growth inhibition; conditions: FIG. 5 and FIG. 6
[4] = test system: human melanoma cells (A375); conditions: FIG. 1 and FIG. 2
Description: A375 cells (5,000 per well in 90% RPMI-1640 plus 10% Fetal Bovine Serum [FBS]) were pre-incubated in a black clear bottom 96-well plate in an atmosphere of 5% CO2 at 37° C. for 24 hours. Stock solutions of compounds in DMSO were diluted using a buffer and dilutions were added to each well. […] The final assay pH was 7.4. The cells were incubated in RPMI-1 640 with each compound for an additional 72 to 168 hours. Alamar Blue was added and the plate was incubated for an additional 12 hours. Fluorescence intensity was measured using a Gemini plate reader with excitation at 530 nm and emission at 590 nm. A decrease of 50 percent or more (≧50%) in fluorescence intensity relative to vehicle treated controls is an indication of significant anti-cancer activity.
TGI (Total Growth Inhibition): Test compound concentration where the increase in number or mass of cells after 72 to 168 hours is reduced to equal that at time t=0.

Measured: growth inhibitory effect compared to Bexarotene

C=C(c1ccc(CC(C(N)=O)C(N)=O)cc1)c1cc2c(cc1C)C(C)(C)CCC2(C)C [Example 8, 2-{4-[1-(3,5,5,8,8-Pentamethyl-5,6,7,8-tetrahydro-naphthalen-2-yl)-vinyl]-benzyl}-malonamide]
enhanced activity: all assays above

C=C(c1ccc(CN2C(=O)CSC2=O)cc1)c1cc2c(cc1C)C(C)(C)CCC2(C)C [Example 10, 3-{4-[1-(3,5,5,8,8-Pentamethyl-5,6,7,8-tetrahydro-naphthalen-2-yl)-vinyl]-benzyl}-thiazolidine-2,4-dione]
enhanced activity: [1] | [4]

C=C(c1ccc(CN2C(=O)CN(C)C2=O)cc1)c1cc2c(cc1C)C(C)(C)CCC2(C)C [Example 11, 1-Methyl-3-{4-[1-(3,5,5,8,8-pentamethyl-5,6,7,8-tetrahydro-naphthalen-2-yl)-vinyl]-benzyl}-imidazolidine-2,4-dione]
enhanced activity: all assays above

C=C(c1ccc(CN2C(=O)NC(C)(C)C2=O)cc1)c1cc2c(cc1C)C(C)(C)CCC2(C)C [Example 12, 5,5-Dimethyl-3-{4-[1-(3,5,5,8,8-pentamethyl-5,6,7,8-tetrahydro-naphthalen-2-yl)-vinyl]-benzyl}-imidazolidine-2,4-dione]
enhanced activity: all assays above

C=C(c1ccc(CN2C(=O)CCNC2=O)cc1)c1cc2c(cc1C)C(C)(C)CCC2(C)C [Example 13, 3-{4-[1-(3,5,5,8,8-Pentamethyl-5,6,7,8-tetrahydro-naphthalen-2-yl)-vinyl]-benzyl}-dihydro-pyrimidine-2,4-dione]
enhanced activity: all assays above

C=C(c1ccc(CN2C(=O)N(C)C(C)(C)C2=O)cc1)c1cc2c(cc1C)C(C)(C)CCC2(C)C [Example 14, 1,5,5-Trimethyl-3-{4-[1-(3,5,5,8,8-pentamethyl-5,6,7,8-tetrahydro-naphthalen-2-yl)-vinyl]-benzyl}-imidazolidine-2,4-dione]
enhanced activity: [1] | [3] | [4]
